Test results published in ChEMBL document CHEMBL5252660 (ACS Med Chem Lett, 2023).
pIC50: −log10 of the molar value.

Tests used:
[1] = molecular target: Fibroblast growth factor receptor 2 (Homo sapiens, UniProt P21802)
Description: Inhibition of human recombinant cytoplasmic domain FGFR2 (8 to 134 residues) incubated for 120 mins by mobility shift assay

[2] = molecular target: Epidermal growth factor receptor (Homo sapiens, UniProt P00533, EX19DEL/T790M); assay: Inhibition of recombinant human EGFR del19/T790M using biotinEEPLYWSFPAKKK-NH2 as substrate incubated for 120 mins by TR-FRET assay
SNU-16 = assay: cells; conditions: Homo sapiens, SNU-16, 72 h
Description: Cytotoxicity against human SNU-16 cells assessed as inhibition of cell growth measured after 72 hrs by cell titer glo assay

SNU1 = assay: cells; conditions: Homo sapiens, SNU1, 72 h
Description: Cytotoxicity against human SNU1 cells assessed as inhibition of cell growth measured after 72 hrs by cell titer glo assay

[3] = Microsomal stability in human liver microsomes assessed as parent compound remaining measured after 30 mins in presence of NADPH generating system by LC-MS analysis; format: ADME, Microsome; conditions: read-out: Stability
[4] = Microsomal stability in mouse liver microsomes assessed as parent compound remaining measured after 30 mins in presence of NADPH generating system by LC-MS analysis; format: ADME, Microsome; conditions: read-out: Stability
[5] = Drug exposure in BALB/cA mouse assessed as AUC(0 to 6 hrs) of drug at 50 mg/kg, po measured after 6 hrs by LC-MS analysis; format: ADME, organism-based; parameters: dose 50 mg/kg, time 6 hrs, route po; conditions: in vivo
[6] = Lipophilicity, logD of the compound at pH 7.4; format: physicochemical; conditions: buffer
[7] = molecular target: Vascular endothelial growth factor receptor 2 (Homo sapiens, UniProt P35968)
Vascular endothelial growth factor receptor 2, sequence (P35968 whole entry, the tested form may be a part): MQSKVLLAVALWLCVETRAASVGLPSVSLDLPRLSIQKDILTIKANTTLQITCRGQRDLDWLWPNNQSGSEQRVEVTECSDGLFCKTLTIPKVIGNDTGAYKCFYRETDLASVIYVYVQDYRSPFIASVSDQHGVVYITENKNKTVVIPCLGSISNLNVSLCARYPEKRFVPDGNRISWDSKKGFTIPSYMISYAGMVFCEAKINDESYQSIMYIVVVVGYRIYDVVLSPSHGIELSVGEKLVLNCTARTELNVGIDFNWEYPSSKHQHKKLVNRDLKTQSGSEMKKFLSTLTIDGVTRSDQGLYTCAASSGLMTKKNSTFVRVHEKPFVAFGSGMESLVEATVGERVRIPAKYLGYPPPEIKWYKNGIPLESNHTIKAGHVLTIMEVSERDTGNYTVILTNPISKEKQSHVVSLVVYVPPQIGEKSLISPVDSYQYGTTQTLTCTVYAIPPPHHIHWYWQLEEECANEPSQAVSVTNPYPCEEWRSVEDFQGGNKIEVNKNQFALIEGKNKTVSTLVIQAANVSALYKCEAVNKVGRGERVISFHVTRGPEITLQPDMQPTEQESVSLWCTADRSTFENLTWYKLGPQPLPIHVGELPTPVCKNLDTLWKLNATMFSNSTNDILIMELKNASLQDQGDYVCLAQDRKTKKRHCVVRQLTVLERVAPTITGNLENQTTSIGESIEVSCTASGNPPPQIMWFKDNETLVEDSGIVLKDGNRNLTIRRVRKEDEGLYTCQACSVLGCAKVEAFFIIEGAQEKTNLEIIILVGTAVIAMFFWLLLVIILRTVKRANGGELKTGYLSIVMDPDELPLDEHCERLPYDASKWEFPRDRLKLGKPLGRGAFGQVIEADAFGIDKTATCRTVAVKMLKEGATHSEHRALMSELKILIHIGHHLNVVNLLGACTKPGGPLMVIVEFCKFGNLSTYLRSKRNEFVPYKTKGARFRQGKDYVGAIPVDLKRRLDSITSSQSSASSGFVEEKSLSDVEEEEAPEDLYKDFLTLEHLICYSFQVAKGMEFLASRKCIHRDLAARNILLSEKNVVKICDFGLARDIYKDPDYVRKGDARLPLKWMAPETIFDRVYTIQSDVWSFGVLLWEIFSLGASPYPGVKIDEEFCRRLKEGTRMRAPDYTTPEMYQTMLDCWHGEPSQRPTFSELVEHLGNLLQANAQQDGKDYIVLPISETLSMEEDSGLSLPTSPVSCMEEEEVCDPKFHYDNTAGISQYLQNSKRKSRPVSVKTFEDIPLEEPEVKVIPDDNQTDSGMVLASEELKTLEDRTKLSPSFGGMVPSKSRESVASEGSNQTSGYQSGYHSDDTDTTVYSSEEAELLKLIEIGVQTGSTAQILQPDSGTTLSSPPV
Description: Inhibition of N-terminal GST tagged recombinant human VEGFR2 (aa805 to 1356 residues) expressed in baculovirus expression system using Poly- (Glu4:Tyr)-biotin as substrate incubated for 80 mins in presence of ATP by kinase glo method

[8] = molecular target: Fibroblast growth factor receptor 1 (Homo sapiens) (UniProt P11362); assay: Inhibition of partial length wild type human FGFR1 (P357 to V669 residues) expressed in bacterial expression system at 100 uM by Kinome scan method relative to control
Fibroblast growth factor receptor 1 (Homo sapiens), sequence (P11362 22-822 limits assumed): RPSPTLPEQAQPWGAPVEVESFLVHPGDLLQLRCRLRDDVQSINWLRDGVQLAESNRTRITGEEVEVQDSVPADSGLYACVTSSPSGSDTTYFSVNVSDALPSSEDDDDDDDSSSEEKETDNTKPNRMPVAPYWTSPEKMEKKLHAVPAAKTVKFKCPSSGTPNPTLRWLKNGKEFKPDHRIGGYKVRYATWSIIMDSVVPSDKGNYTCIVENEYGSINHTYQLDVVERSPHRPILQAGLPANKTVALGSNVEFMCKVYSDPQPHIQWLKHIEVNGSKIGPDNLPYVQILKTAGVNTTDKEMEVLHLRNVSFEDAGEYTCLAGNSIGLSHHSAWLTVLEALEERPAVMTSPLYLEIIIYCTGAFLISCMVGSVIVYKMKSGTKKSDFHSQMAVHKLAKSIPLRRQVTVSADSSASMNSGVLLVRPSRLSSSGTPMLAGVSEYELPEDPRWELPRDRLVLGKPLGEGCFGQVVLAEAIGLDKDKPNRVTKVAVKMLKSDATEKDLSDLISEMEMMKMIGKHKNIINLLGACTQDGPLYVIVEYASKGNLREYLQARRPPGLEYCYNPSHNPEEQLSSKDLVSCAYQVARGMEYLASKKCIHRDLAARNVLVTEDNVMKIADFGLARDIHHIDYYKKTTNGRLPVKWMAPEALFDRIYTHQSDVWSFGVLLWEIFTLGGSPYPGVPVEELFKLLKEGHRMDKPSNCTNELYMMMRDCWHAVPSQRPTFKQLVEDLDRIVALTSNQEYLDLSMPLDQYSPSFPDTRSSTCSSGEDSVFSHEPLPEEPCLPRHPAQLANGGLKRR

[9] = molecular target: Fibroblast growth factor receptor 3 (Homo sapiens) (UniProt P22607); assay: Inhibition of wild type human partial length FGFR3 (R442 to S771 residues) expressed in bacterial expression system at 100 uM by Kinome scan method relative to control
Fibroblast growth factor receptor 3 (Homo sapiens), sequence (P22607 23-806 limits assumed): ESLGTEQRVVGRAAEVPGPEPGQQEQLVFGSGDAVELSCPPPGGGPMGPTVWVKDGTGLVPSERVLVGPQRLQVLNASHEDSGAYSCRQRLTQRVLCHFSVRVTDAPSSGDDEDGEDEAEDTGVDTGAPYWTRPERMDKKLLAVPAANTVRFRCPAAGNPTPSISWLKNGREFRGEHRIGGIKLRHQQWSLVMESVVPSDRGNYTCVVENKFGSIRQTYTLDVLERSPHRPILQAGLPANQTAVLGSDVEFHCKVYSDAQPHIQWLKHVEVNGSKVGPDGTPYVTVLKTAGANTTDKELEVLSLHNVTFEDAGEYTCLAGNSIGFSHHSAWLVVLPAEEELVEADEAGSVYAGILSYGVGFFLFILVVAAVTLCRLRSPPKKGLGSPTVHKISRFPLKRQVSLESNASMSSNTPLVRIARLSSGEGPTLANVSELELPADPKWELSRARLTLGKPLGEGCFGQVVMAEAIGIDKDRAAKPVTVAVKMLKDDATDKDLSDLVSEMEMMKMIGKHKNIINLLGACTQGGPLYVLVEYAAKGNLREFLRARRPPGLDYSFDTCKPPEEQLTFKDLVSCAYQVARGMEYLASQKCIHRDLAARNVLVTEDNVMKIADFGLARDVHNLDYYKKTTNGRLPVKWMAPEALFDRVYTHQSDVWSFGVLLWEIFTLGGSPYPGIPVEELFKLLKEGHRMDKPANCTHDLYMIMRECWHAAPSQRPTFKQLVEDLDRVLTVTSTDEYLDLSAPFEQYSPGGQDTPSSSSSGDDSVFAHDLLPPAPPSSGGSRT

[10] = molecular target: T1, Mitogen-activated protein kinase 12 (Homo sapiens) (UniProt P53778); assay: Inhibition of human full length wild type MAPK12 (M1 to L367 residues) expressed in mammalian expression system at 100 uM by Kinome scan method relative to control
T1 sequence (whole entry): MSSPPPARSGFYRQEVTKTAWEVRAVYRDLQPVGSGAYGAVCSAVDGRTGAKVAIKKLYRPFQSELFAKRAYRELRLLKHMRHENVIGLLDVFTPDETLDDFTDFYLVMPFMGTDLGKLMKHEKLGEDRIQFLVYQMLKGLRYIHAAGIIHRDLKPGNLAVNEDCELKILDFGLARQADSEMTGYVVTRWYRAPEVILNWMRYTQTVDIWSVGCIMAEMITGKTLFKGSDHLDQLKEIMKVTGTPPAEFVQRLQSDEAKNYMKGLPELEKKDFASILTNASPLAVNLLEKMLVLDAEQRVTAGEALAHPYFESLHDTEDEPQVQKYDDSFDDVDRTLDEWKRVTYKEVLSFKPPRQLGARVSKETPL

[11] = molecular target: Insulin receptor (Homo sapiens) (UniProt P06213); assay: Inhibition of human wild type partial length INSR (P997 to E1318 resides) expressed in mammalian expression system at 100 uM by Kinome scan method relative to control

Epidermal growth factor receptor, sequence (P00533 whole entry, looked up, stated change not applied): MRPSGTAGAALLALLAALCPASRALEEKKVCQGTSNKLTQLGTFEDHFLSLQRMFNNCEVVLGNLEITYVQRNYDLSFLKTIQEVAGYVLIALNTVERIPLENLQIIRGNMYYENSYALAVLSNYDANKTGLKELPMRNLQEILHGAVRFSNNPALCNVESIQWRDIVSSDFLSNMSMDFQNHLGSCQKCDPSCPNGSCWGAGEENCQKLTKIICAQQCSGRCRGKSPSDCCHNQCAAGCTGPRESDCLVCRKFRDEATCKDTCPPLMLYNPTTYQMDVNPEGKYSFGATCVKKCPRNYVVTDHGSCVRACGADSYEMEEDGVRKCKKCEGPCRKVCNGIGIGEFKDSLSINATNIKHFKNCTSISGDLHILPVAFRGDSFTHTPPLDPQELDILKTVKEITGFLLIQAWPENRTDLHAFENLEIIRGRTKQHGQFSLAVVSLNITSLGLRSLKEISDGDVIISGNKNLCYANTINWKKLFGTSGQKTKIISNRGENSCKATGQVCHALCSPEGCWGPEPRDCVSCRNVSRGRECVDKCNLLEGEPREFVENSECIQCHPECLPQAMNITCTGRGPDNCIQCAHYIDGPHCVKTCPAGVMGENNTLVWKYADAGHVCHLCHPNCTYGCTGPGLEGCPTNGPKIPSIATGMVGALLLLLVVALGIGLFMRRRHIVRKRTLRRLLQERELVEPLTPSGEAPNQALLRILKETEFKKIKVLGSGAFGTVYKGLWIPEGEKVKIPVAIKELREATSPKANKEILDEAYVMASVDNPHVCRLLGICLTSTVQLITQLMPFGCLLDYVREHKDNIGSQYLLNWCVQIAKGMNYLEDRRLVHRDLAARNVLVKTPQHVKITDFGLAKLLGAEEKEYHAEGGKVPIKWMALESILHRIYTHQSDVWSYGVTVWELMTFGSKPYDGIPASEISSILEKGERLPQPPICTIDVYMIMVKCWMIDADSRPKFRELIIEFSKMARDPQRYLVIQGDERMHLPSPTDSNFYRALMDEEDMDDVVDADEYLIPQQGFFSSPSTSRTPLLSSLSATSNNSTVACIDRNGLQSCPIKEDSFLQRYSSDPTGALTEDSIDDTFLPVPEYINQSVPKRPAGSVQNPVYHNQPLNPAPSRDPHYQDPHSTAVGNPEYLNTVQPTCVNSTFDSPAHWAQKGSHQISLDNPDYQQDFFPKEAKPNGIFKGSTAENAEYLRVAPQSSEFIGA
Fibroblast growth factor receptor 2, sequence (P21802 whole entry): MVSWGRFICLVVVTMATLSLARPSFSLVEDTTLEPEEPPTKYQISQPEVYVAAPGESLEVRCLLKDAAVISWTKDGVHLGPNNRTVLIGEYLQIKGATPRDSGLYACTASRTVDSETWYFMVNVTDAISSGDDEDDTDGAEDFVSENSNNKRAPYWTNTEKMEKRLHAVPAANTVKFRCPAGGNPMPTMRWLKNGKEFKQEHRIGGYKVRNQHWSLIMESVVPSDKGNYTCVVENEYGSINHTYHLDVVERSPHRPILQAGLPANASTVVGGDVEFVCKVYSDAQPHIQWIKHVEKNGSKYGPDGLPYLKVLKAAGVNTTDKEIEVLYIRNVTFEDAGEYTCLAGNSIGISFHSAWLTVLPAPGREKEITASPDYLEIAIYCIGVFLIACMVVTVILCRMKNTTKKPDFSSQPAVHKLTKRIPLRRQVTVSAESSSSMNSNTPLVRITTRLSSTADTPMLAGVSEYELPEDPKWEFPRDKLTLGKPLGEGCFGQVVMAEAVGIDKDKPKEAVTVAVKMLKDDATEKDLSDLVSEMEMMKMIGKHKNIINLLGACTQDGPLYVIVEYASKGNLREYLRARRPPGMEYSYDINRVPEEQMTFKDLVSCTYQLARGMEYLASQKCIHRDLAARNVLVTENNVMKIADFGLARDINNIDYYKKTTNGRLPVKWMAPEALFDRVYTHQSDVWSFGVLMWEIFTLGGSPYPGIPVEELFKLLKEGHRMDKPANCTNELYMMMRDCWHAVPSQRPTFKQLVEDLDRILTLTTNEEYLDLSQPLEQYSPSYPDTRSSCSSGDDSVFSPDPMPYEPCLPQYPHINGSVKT

pIC50 [1]	pIC50 [2]	pIC50 (SNU-16)	pIC50 (SNU1)	Compound	other results
7.77	6.95			C=CC(=O)N1CC[C@H](n2cc(-c3cnc4ccccc4c3)c3c(N)ncnc32)C1	
		7.37	< 5.30	COc1cc(C#Cc2nn([C@H]3CCN(C(=O)/C=C/CN(C)C)C3)c3ncnc(N)c23)cc(OC)c1	
6.50	9.40			C=CC(=O)N1CC[C@@H](n2cc(-c3cnc4ccccc4c3)c3c(N)ncnc32)C1	
		8.08	< 5.30	COc1cc(C#Cc2nn(C3CN(C(=O)/C=C/CN(C)C)C3)c3ncnc(N)c23)cc(OC)c1	remaining at 0.5 h [3]: 77%; remaining at 0.5 h [4]: 98%; AUC(0-t) at 6 h [5]: 1.27 µM·h; logD [6]: 2.3
	< 5.30			C=CC(=O)N1CC[C@H](n2nc(-c3cc(OC)cc(OC)c3)c3c(N)ncnc32)C1	
	< 5.30	5.85	< 5.30	CCC(=O)N1CC[C@H](n2nc(C#Cc3cc(OC)cc(OC)c3)c3c(N)ncnc32)C1	
6.59	6.13			C=CC(=O)N1CC[C@H](n2nc(-c3cnc4ccccc4c3)c3c(N)ncnc32)C1	
		7.49	< 5.30	C=CC(=O)N1CC(Cn2nc(C#Cc3cc(OC)cc(OC)c3)c3c(N)ncnc32)C1	
6.17	< 5.30			C=CC(=O)N1CC[C@H](n2nc(C(=O)Nc3cc(OC)cc(OC)c3)c3c(N)ncnc32)C1	
		8.13	< 5.30	C=CC(=O)N1CC(n2nc(C#Cc3cc(OC)cc(OC)c3)c3c(N)ncnc32)C1	remaining at 0.5 h [3]: 83%; remaining at 0.5 h [4]: 92%; AUC(0-t) at 6 h [5]: 0.07 µM·h; logD [6]: 3
		6.44	< 5.30	C=CC(=O)NCCn1nc(C#Cc2cc(OC)cc(OC)c2)c2c(N)ncnc21	
		7.48	< 5.30	C=CC(=O)N1CCC(n2nc(C#Cc3cc(OC)cc(OC)c3)c3c(N)ncnc32)CC1	
6.62	< 5.30			C=CC(=O)N1CC[C@H](n2nc(CCc3cc(OC)cc(OC)c3)c3c(N)ncnc32)C1	
7.24	8.92			C=CC(=O)N1CCC(n2cc(-c3cnc4ccccc4c3)c3c(N)ncnc32)C1 (racemic)	
5.65	8.27			C=CC(=O)N1CC[C@@H](n2nc(-c3cnc4ccccc4c3)c3c(N)ncnc32)C1	

Compound	pIC50 [1]	pIC50 [2]	pIC50 (SNU-16)	pIC50 (SNU1)	other results
C=CC(=O)N1CC[C@H](n2nc(C#Cc3cc(OC)cc(OC)c3)c3c(N)ncnc32)C1 [FUTIBATINIB]		< 5.30	8.43	< 5.30	pIC50 [7]: 5.63; remaining at 0.5 h [3]: 66%; remaining at 0.5 h [4]: 69%; AUC(0-t) at 6 h [5]: 23.9 µM·h; logD [6]: 3.4; inhibition [8]: 99.1%; inhibition [9]: 97.8%; inhibition [10]: 69%; inhibition [11]: 55%
C=CC(=O)N1CC[C@@H](n2nc(C#Cc3cc(OC)cc(OC)c3)c3c(N)ncnc32)C1			6.95	< 5.30	pIC50 [7]: 5.83
